Source: paper PMC10770036, “Novel dual inhibitors of PARP and HDAC induce intratumoral STING-mediated antitumor immunity in triple-negative breast cancer” (Cell Death & Disease, 2024)

Experiments:
[1] = target: T1, PARP2 (Homo sapiens, UniProt Q9UGN5); test: PARP2 enzymatic inhibition assay (PARP2 Colorimetric Assay Kit); type: biochemical
T1 construct: purchased BPS Bioscience 80581
Description: Briefly, the 1× histone mixture was added to each well and incubated overnight at 4 °C. Each well was washed three times with 200 µL 1× TBST buffer and filled with 200 µL Blocking buffer at room temperature for 90 min. Then, each well was filled with 25 µL of PARP master mixture (5 μL activated DNA + 2.5 μL 10× PARP Assay mixture + 2.5 μL 10× PARP buffer + 15 μL distilled water). Next, 5 µL of the compound of different concentrations was added to each well, and PARP enzyme was added and incubated at room temperature for 1 h. Next, streptavidin HRP solution was added and incubated at room temperature for 30 min. After adding 100 µL of colorimetric HRP substrate to each well, the plate was incubated until a blue color developed in the positive well, which contained PARP enzyme without inhibitors. The reaction was then quenched with 2 M sulfuric acid, and absorbance at 450 nm was measured using a microplate reader (BioTek, Winooski, VT, USA). After calculating the inhibition rate, the IC50 value was determined.

[2] = test system: MDA-MB-436, MDA-MB-231, and MDA-MB-468 cells; test: Colony formation assay; type: cell-based, human; settings: approximately 14 days
Description: MDA-MB-231, MDA-MB-436 and MDA-MB-468 cells were seeded at a density of 2,000 cells in 6-well plates and cultured overnight. […] The cells were fixed with 4% paraformaldehyde (Merck) for 1 h at room temperature and stained with 0.1% crystal violet (Beyotime Biotechnology) for 30 min. Under an inverted phase contrast microscope (Leica Microsystems, Heidelberg, Germany), cell colonies were photographed at 5× magnification. All these analyses were performed at least three times.

[3] = test system: p-H2A.X; test: Western blot of H2A.X phosphorylation (DNA damage) in TNBC cells; type: cell-based, human; settings: TNBC cell lines, 48 h
Description: Western blot analysis was performed as previously described, and all western blot analyses were performed at least three times.
Western blot analysis was performed as previously described. Briefly, whole cell or tissue lysates were prepared using ice-cold Nonidet P-40 buffer mixed with protease and phosphatase inhibitors (Roche, IN, USA) and centrifuged at 14,000 × g at 4 °C for 10 min. The protein lysates were fractionated by sodium dodecyl sulfate–polyacrylamide gel electrophoresis (SDS–PAGE) and transferred to polyvinylidene fluoride (PVDF) membranes (Merck, Darmstadt, Germany). Membranes were incubated in 1× TBST buffer containing 5% nonfat powdered milk at room temperature for 2 h. The indicated primary antibody was incubated with PVDF membranes, followed by a washing step using 1× TBST and a secondary antibody conjugated to HRP. Signal detection was carried out using the Western ECL Substrate kit (Bio-Rad, Hercules, CA, USA). […]

[4] = Body weight of tumor-bearing mice; type: in vivo
Source text: MDA-MB-436, MDA-MB-231, and 4T1 cells were orthotopically injected into the fat pads of 6- to 7-week-old female NOD-Prkdc^scid Il2rg^em1Smoc (M-NSG), BALB/c nude and BALB/c mice, respectively. Fourteen 6-week-old female MMTV-PyMT mice were divided into two groups. The […] in each group were littermates. All animal procedures were approved by the Institutional Animal Care and Use Committee at Shenzhen University.
MDA-MB-436 cells (5 × 10^6) were suspended in PBS and Matrigel (Corning) at a 1:1 ratio and orthotopically injected into the fat pads of 6- to 7-week-old female NOD-Prkdc^scid Il2rg^em1Smoc (M-NSG) mice from the Shanghai Model Organisms Center, Inc. MDA-MB-231 cells (5 × 10^6) were suspended in PBS orthotopically injected into the fat pads of 6- to 7-week-old female BALB/c nude mice from the Shanghai Model Organisms Center, Inc. 4T1 cells (1 × 10^6) were suspended in PBS and injected into the fat pads of 6- to 7-week-old […] BALB/c mice from GemPharmatech Co., Ltd. When the tumor size reached 100 mm^3, the mice were randomly divided into three treatment groups without blinding: B102 (15 mg/kg), B302 (50 mg/kg) or vehicle [10% N,N-dimethylacetamide (DMAC, Sangon Biotech) and 6% polyethylene glycol 12-hydroxystearate (Solutol HS-15, MedChem Express, Monmouth Junction, NJ, USA) in saline] treatment via an intraperitoneal injection once daily. […]

[5] = test system: MDA-MB-436 cells; test: MTT cell viability assay, MDA-MB-436; settings: Homo sapiens, MDA-MB-436, 72 h, read-out: IC50 MDA-MB-436
Description: The viability assay was measured by a 3-(4,5-dimethylthiazol-2-yl)−2,5-diphenyltetrazolium bromide (MTT) assay.
In brief, cells were seeded at a density of 6,000 cells in 96-well plates and cultured overnight. […] After aspiration of the medium, the formazan crystals were dissolved in 100 μL of DMSO. The absorbance at 490 nm was measured using a microplate reader (BioTek). All these analyses were performed at least three times.

T1 sequence (Q9UGN5 whole entry): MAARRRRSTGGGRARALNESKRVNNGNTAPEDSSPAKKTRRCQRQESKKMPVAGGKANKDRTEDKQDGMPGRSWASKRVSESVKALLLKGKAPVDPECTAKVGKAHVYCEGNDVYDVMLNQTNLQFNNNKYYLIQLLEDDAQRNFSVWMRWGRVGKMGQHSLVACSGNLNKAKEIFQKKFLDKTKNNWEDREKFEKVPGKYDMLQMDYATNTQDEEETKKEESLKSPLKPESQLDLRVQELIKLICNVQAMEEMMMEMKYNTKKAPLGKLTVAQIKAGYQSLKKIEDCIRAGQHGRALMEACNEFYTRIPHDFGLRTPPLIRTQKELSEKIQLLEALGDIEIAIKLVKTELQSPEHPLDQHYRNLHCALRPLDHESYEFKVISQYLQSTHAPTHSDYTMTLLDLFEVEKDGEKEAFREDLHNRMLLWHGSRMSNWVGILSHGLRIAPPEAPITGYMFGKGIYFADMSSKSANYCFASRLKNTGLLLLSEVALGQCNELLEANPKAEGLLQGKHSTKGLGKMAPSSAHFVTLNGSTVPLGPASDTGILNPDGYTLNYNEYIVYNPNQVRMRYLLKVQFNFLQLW

Row | Structure (SMILES) | IC50 [1] | colony formation of TNBC cells [2] | p-H2A.X levels (DNA DSBs) [3] | body weights of tumor-bearing mice ([4]; 15 mg/kg/d) | IC50 [5] | body weights of tumor-bearing mice ([4]; 50 mg/kg/d)
1 | Nc1cc(F)ccc1NC(=O)/C=C/c1ccc(CN2CCN(C(=O)c3cc(Cc4n[nH]c(=O)c5ccccc45)ccc3F)CC2)cc1 [Compound B102] | 2.13 nM | reduction in colony formation | increased p-H2A.X (S136) levels | not obviously altered | 160 ± 50 nM | –
2 | Nc1cc(F)ccc1NC(=O)CCc1ccc(CN2CCN(C(=O)c3cc(Cc4n[nH]c(=O)c5ccccc45)ccc3F)CC2)cc1 [Compound B302] | 57 nM | reduction in colony formation | increased p-H2A.X (S136) levels | – | 4120 ± 1020 nM | not obviously altered
